According to a melting point compilation (Tetko et al.; mined from patent text by program, amines drawn as free bases though some values may be those of a salt):

Compound | melting point [°C]
CC(C)Nc1cccnc1N1CCN(C(=O)c2ccc(C(=O)N(CCO)CCO)cn2)CC1 | 130 to 132
C/C=C/c1cc(OC)c2c(c1)[C@@H](C)[C@H](c1cc(CO)c(O)c(OC)c1)O2 (relative stereo) | 117 to 119
O=C1COc2ccc(NC(=O)C(=O)N3CCC(Cc4ccccc4)CC3)cc2N1 | 186 to 187
CC1CC(=O)NN=C1c1ccc(C(=O)OC2CCCC2)cc1 (stereo unspecified) | 120 to 122
CC#CCOc1ccc(S(=O)(=O)C2(C(=O)NO)CCOCC2)cc1 | 210
COC(=O)c1c(S(=O)(=O)NC(=O)Nc2nc(C)nc(OC)n2)c(C)nn1C | 195 to 198
COc1ccc(N(C(=O)CN2C(=O)C(Cc3nn(Cc4ccccc4)c4c3CCCC4)C(=O)N(c3ccccc3)c3ccccc32)C(C)C)cc1 (stereo unspecified) | 173 to 176
Cc1ccc(N(C)C(=O)Cc2ccccc2)s1 | 77 to 79
COC(=N)CCCCc1csc(NC(=N)N)n1 | 143 to 145
NCCON=C1c2ccccc2C2CC2c2ccccc21 (stereo unspecified) | 133 to 134
O=C1CC(C(=O)O)(c2ccc(F)cc2)c2ccccc21 (stereo unspecified) | 106 to 108
OCCCc1cn(-c2ccc(C(F)(F)F)cn2)nc1OCc1ccccc1 | 79 to 81
COc1ccc(C=NNc2ccc(S(N)(=O)=O)cc2)cc1 | 228 to 231
CCCCNC(=O)Nc1ccc(S(C)=O)cc1C(=O)NCC1CCN(C(c2ccccc2)c2ccccc2)CC1 (stereo unspecified) | 178 to 179
CC(C)CCOC(=O)C(O)C(CC(C)C)NC(=O)C(Cc1c[nH]cn1)NC(=O)C(CC(=O)NCCc1ccccc1)Cc1cccc2ccccc12 (mixture of isomers) | 82 to 87
CC(=O)Oc1cc(O)c(C=O)c(OC(C)=O)c1 | 103 to 105
O=C(O)CC1CSc2sccc2C1=O (stereo unspecified) | 124 to 127
CCC12CCC3=C(CCc4cc(OC(C)=O)ccc43)C1=CCC2=O (stereo unspecified) | 122 to 124
Cc1cc2cc([N+](=O)[O-])ccc2o1 | 93 to 95
ClCc1cn2c(n1)CN=C(c1ccccn1)c1cc(Cl)ccc1-2 | 161
CC1CC2C3CC(F)C4=CC(=O)C=CC4(C)C3C(=O)CC2(C)C1C(=O)COC(=O)C(C)(C)C (stereo unspecified) | 226 to 227
COc1cc(CCCC2OC(=O)NC2=O)ccc1OCc1csc(-c2ccccc2)n1 (stereo unspecified) | 96 to 97
Cc1cc(-c2ccc3c(=O)c(C(=O)O)cn(-c4ccc(F)cc4)c3c2)on1 | 281 to 282
CC1c2ccccc2CC(=O)Cc2ccccc21 | 152 to 155
COC(=O)c1ccc(O)nc1C1=NC(C)(C(C)C)C(=O)N1 (stereo unspecified) | 186 to 191
CC(C)(C)c1ccc(-c2cc(C=O)cc3c2C(C)(C)CCC3(C)C)cc1 | 129

Compound | melting point [°C]
OC1(c2ccccc2)CSC2=NCN(Cc3ccccc3)CN21 (stereo unspecified) | 97 to 99
COc1ccc2c3c([nH]c2c1)CCC(N(C)C)C3 (stereo unspecified) | 100 to 105
CCC(C)c1ccc(NC(=O)c2sccc2S(=O)(=O)Nc2onc(C)c2Br)cc1 (stereo unspecified) | 205 to 208
CCONC(=O)Cc1ccc2cc(OC)ccc2c1 | 196 to 197
CC(=O)NC[C@H]1CN(c2cc(F)c(N3CCN(CCO)CC3)c(F)c2)C(=O)O1 | 172 to 174
OCc1cc(O)ccc1/C=C/c1ccc(O)cc1 | 223 to 225
O=[N+]([O-])c1cccc(/C=C/c2nc(C3CCC3)cs2)c1 | 78 to 80
COC(=O)CCC#CCCC(=O)O | 71.5 to 72
CC(C)(C)OC(=O)N1CC=C(c2c(F)cc(N)cc2F)CC1 | 134 to 135
CC(=O)c1cc(NC(=O)c2ccccc2)cc(C(C)=O)c1 | 188 to 189
COC(=O)[C@H](O)[C@@H](NS(=O)(=O)c1ccc([N+](=O)[O-])cc1)c1ccccc1 | 187 to 189
CCC(=O)N(c1ccc(C#N)cc1)c1c(NC(C)C(C)(C)C)c(=O)c1=O (stereo unspecified) | 211 to 214
CCOC(=O)N(N=c1[nH]c(SC)nc2ccc(C)cc12)c1ccccc1 | 230
COC(=O)c1c(O)c2c([nH]c1=O)CCCCC2 | > 255
COc1c(Br)ccc2oc(CNc3ccc(-c4ccc(S(=O)(=O)NC(C(=O)O)C(C)C)cc4)cc3)c(C)c12 (stereo unspecified) | 194 to 198
O=C(/C=C/c1cccc(NS(=O)(=O)c2ccc(C(=O)Nc3ccc(Cl)c(-c4ccccn4)c3)c(Cl)c2)c1)NO | 217 to 221
CCC(C)n1ccnc1S (stereo unspecified) | 108 to 121
CCCCc1nc(C)c(CC(=S)N2CCC2)c(=O)n1Cc1ccc(-c2ccccc2-c2nnn[nH]2)cc1 | 92.4 to 93.8
CCOC(=O)Cc1ccc(Cn2c(-c3ccc(OC4CCCC4)cc3)c(C)c3cc(OCc4ccccc4)ccc32)cc1 | 96 to 98
COc1cc(Nc2c(C#N)cnc3sc(-c4ccc(CN5CCOCC5)cc4)cc23)c(Cl)cc1Cl | 106 to 108
CCOC(=O)c1cn(-c2cnc(Cl)c(N)c2)c2c(Cl)c(F)c(F)cc2c1=O | 233 to 236
CCOC(=O)COc1coc(C)cc1=O | 95 to 98
CCCc1c2nc(C(=O)OCC)ccc2cc2c(=O)cc(C(=O)OCC)oc12 | 168 to 171
CCOC(=O)C1=C(COCC(C)=O)NC(C)=C(C(=O)OC)C1c1cccc(Cl)c1Cl (stereo unspecified) | 117 to 119
CN(C)CCCC(C(N)=O)c1ccccc1-c1ccccc1 (stereo unspecified) | 108 to 110
O=C(O)C1=Cc2ccc(OCc3ccccc3)cc2CC1 | 202 to 205

Compound | melting point [°C]
Fc1ccc(F)c(-c2nc(-c3ccccn3)no2)c1 | 120 to 126
Cn1cccc1C=CC(=O)NCCCCCC(=O)NO | 103 to 105
Cn1cc(C(=O)NCc2ccc(Cl)cc2)c(=O)c2cc(CO)ccc21 | 168 to 170
O=C1NCCc2c[nH]c3cccc1c23 | 234
COc1ccccc1N1CCN(CC(O)COc2ccc(CC(C)=O)cc2)CC1 (stereo unspecified) | 42 to 43
O=CNC1CCN(c2ncc3ncnc(Nc4ccc(F)c(Cl)c4)c3n2)CC1 | 201 to 203
CC(C)c1cc(O)cc2nc(-c3ccc(O)cc3)oc12 | 200
N#Cc1cnc(-c2ccccc2OCC2CC2)[nH]c1=O | 188 to 190
COc1cc(OC)c2c(c1)OC(C(C)(C)C(N)=O)CC2=O (stereo unspecified) | 161 to 163
C=CC(=O)NCc1ccc(Cl)cc1 | 103 to 104
CCCCCCCCCCCCOc1cccc2c(OCCCCCCCCCCCC)cccc12 | 92 to 93
O=C(O)CCNC(=O)c1ccccc1SSc1ccccc1C(=O)NCCC(=O)O | 201 to 203
CC(=O)OCC(=O)NCc1ccc(-c2csc(N)n2)s1 | 149 to 150
COCOc1cccc(NC(=O)OC(C)(C)C)c1I | 82 to 84
COc1cc2nc(N3CCN(C(=O)c4ccco4)CC3)[nH]c2cc1OC | 143 to 145
C=CCc1cc(Cl)cc2nc(Cc3ccc(OC)c(OC4CCCC4)c3)oc12 | 43 to 44
CS(=O)(=O)c1ccc(-c2cnn(-c3cccc(Cl)c3)c(=O)c2Cc2ccc(F)cc2)cc1 | 183 to 185
Fc1ccccc1COC1COC(CCl)OC1 (stereo unspecified) | 60 to 62
CC(=O)Oc1ccc2nc(C#N)nc(Cl)c2c1 | 145 to 147
COC(=O)c1ccc(Oc2nn(Cc3ccccc3)c3ccccc23)o1 | 89 to 91
Nc1c2c(nc3ccccc13)CCCC2N1CCCC1 (stereo unspecified) | 201 to 203
COc1ccc(Cc2cc(C3CCN(C(=O)NCc4ccccc4)CC3)nc(N)n2)cc1 | 128 to 131
O=C(O)Cc1ccc(-c2ccc(-c3ccccc3)cc2)o1 | 196 to 210
CCOC(=O)c1c(CN(CC)CC)nc2cc(OC)c(OC)cc2c1-c1ccc(OC)c(OC)c1 | 130 to 131
CC(C)(C)OC(=O)N1CCN(CCc2ccc(F)cc2)CC1 | 68 to 70
CC(=O)N1CCC(C(O)(c2ccccc2)c2ccc(F)cc2)CC1 (stereo unspecified) | 173 to 175

Compound | melting point [°C]
Cc1cccc(S(=O)(=O)Nc2onc(C)c2Br)c1 | 138 to 140
COc1ccnc(CCc2nc3c(C)cc(C)nc3[nH]2)c1 | 176 to 178
COc1ccc(-c2nc(Sc3ccc(C(F)(F)F)cc3[N+](=O)[O-])[nH]c2-c2ccc(OC)cc2)cc1 | 264 to 266
CNC(=O)c1ccc(F)c2c1CC(N(CCCc1c[nH]c3ccc(F)cc13)CC1CC1)CO2 (stereo unspecified) | 120
Cc1nc(N)c2nc(CONC(C)C)n(CCCCNC(=O)C(C)C)c2c1C | 156 to 157
Cc1nc(CCc2ccccc2)c2c(c1O)COC2 | 248
CCC1CC2C3CCC4=CC(=O)CCC4=C3C=CC2(C)C1O (stereo unspecified) | 139 to 141
c1ccc2oc(-c3ccc(-c4nc5ccccc5o4)cc3)nc2c1 | 318 to 328
CC(=O)OC(C)c1ccccc1CS(N)(=O)=O (stereo unspecified) | 135 to 140
COCC(=O)N1CCc2cc(S(=O)(=O)N3CCN(c4cccc(Cl)c4)CC3)ccc21 | 230
COc1ccc(Cl)cc1C1(O)C(=O)Nc2ccc(Br)cc21 (stereo unspecified) | 245 to 247
COc1ccc(Cl)cc1-c1[nH]c2cccc3c2c1CCNC3=O | 160 to 162
COc1cc(OC)c2c(=O)[nH]c(-c3cc(C)c(OCCN4Cc5ccccc5C4)c(C)c3)nc2c1 | 202
O=C(Sc1ccc(O)cc1)c1cccc(C(=O)Sc2ccc(O)cc2)c1 | 218 to 221
Cc1ccc(S(=O)(=O)CCCCCC(C)(C(=O)OC(C)(C)C)C(=O)OC(C)(C)C)cc1 | 36.5 to 38.5
NC(=S)NCc1cccs1 | 99 to 101
COC(=O)c1ccc(Cn2cc(C=C3C(=O)NC(=O)NC3=O)c3ccccc32)cc1 | > 300
CCOC(=O)C(C)(C)Oc1ccc(CNc2ccccc2)cc1 | 45 to 46
OC1(c2ccc(C(F)(F)F)cc2)CCN(Cc2ccccc2)CC1 | 115 to 117
Sc1nc(CCCC2CCCCC2)c[nH]1 | 176 to 177
COP(=O)(O)CNc1cc(Cl)c(Oc2ccc(O)c3ccccc23)c(Cl)c1 | 85 to 87
O=C(O)CNc1csc2ccccc12 | 195 to 198
COc1cc2ncnc(N3CCc4cc5[nH]ccc5cc43)c2cc1OC | 245 to 252
